Measurements reported in patent US20140378541A1, “Synthetic Epigallocatechin Gallate (EGCG) Analogs” (WAYNE STATE UNIVERSITY, priority 2011, published 2014).

Assays:
AMPK signaling = assay: AMPK activation, Western blot, MDA-MB-231 cells; assay type: cell-based, human; settings: 3 h; for AMPK activation (p-AMPK): 20 μM, metformin 10 mM as comparison; for AMPK activation (phosphor-AMPKα, phosphor-Raptor), dose dependence: indicated concentrations
Experimental: In FIG. 9A, human breast cancer MDA-MB-231 cells were treated with 20 μM of EGCG, Pro-EGCG and EGCG analogs (compounds 5, 7, 23, 30 and 31), or 10 mM of metformin for 3 hrs. Cell lysates were analyzed by Western blot using antibodies of anti-AMPK, p-AMPK, PARP, p-EGFR, EGFR or β-actin. In FIG. 9B, human breast cancer MDA-MB-231 cells were treated with 20 μM of EGCG analogs 23 and 30, 10 nM of docetaxel alone, or combined treatment with compounds 23 and 30 plus docetaxel for 24 hrs. Cell lysates were analyzed by Western blot using antibodies of anti-AMPK, p-AMPK, PARP, p-EGFR, EGFR or β-actin. In FIG. 9C, cells were incubated in medium (0.1% BSA without FBS) containing 20 μM of 23, 30, 2.5 μM of Erlotinib (Eb) alone or the combinations as indicated for 24 hrs. Cell lyses were analyzed by Western blot using antibodies of anti-AMPK, p-AMPK, PARP, p-EGFR, EGFR or β-actin.
(§1) (A) EGCG analogs 23 and 30 inhibited breast cancer cell proliferation. MDA-MB-231 cells were treated with indicated concentrations of 23, 30 or metformin for 24 h, followed by a MTT assay. *, P<0.1; **, P<0.01. Columns, mean of three experiments; bars, SD. (B) EGCG analogs 23 and 30 activated AMPK at a dose-dependent manner, measured by elevated level of phosphor-AMPKα and its downstream proteins of phosphor-Raptor. […] MDA-MB-231 cells were treated with indicated concentrations of 23 or 30 for 3 h, followed by Western blot analysis with the indicated antibodies. The numbers underneath the Western results of p-AMPKα indicated normalized phosphor-AMPKα/β-actin ratios. […]
A whole cell extract was prepared from the treated cells as described by Landis-Piwowar et al. Cancer Res. (2007) 67, 4303, Chen et al. Cancer Res. (2007) 67, 1636, and Chen et al. Biochem. Pharm. (2005) 69, 1421. Cell extracts (30 μg) were separated by an SDS-PAGE gel and transferred to nitrocellulose membranes. The membrances were blotted by specific antibodies including anti-AMPK, p-AMPK, EGFR, p-EGFR (Cell Signaling Tech., Danvers, Mass.), PARP (Enzo Life Sciences, Plymouth Meeting, Pa.), actin (Santa Cruz Biotechnology, Santa Cruz, Calif.). The membranes were visualized by enhanced chemiluminescence, as described previously by Landis-Piwowar et al. Cancer Res. (2007) 67, 4303, Chen et al. Cancer Res. (2007) 67, 1636, and Chen et al. Biochem. Pharm. (2005) 69, 1421.
The Western blot analysis was performed as follows: A whole cell extract was prepared from the treated cells as described previously (Landis-Piwowar et al., Cancer research, 2007, 67: 4303-4310; Chen et al., Cancer research, 2007, 67: 1636-1644; Chen et al., Biochemical pharmacology, 2005, 69: 1421-1432). The cell extracts (30 μg) were then separated by an SDS-PAGE gel and transferred to nitrocellulose membranes. The membrances were blotted by specific antibodies including anti-AMPK, p-AMPK, EGFR, p-EGFR (Cell Signaling Tech. Danvers, Mass.), PARP (Enzo Life Sciences, Plymouth Meeting, Pa.), actin (Santa Cruz Biotechnology, Santa Cruz, Calif.). The membranes were visualized by enhanced chemiluminescence, as described previously (Landis-Piwowar et al., Cancer research, 2007, 67: 4303-4310; Chen et al., Cancer research, 2007, 67: 1636-1644; Chen et al., Biochemical pharmacology, 2005, 69: 1421-1432).
In FIG. 9A, human breast cancer MDA-MB-231 cells were treated with 20 μM of EGCG, Pro-EGCG and other EGCG analogs (compounds 5, 7, 23, 30 and 31), or 10 mM of metformin for 3 hrs. Cell lysates were analyzed by Western blot using antibodies of anti-AMPK, p-AMPK, PARP, p-EGFR, EGFR or β-actin. In FIG. 9B, human breast cancer MDA-MB-231 cells were treated with 20 μM of EGCG analogs 23 and 30, 10 nM of docetaxel alone, or combined treatment with compounds 23 and 30 plus docetaxel for 24 hrs.

MDA-MB-231 cells = assay: Mammosphere formation assay; assay type: cell-based; settings: Homo sapiens, MDA-MB-231, 168 h, 7 days
Experimental: MDA-MB-231 cells were seeded in low attached 6-well plates (1000 cells/well) and treated with indicated concentrations of 23 and 30 for 7 days, followed by calculating numbers of mammosphere (A) and taking photos of mammosphere morphology (B). Metformin and EGCG were served as control. *, P<0.1; **, P<0.01. Columns, mean of three experiments; bars, SD.
Mammosphere formation assay was performed to assess the capacity of cancer stem cell self-renewal. Single cell suspensions of MDA-MB-231 cells were thoroughly suspended and plated on ultra low adherent wells of 6-well plates (Corning, Lowell, Mass.) at 1000 cells/well in 1.5 ml of sphere formation medium (1:1 DMEM/F12 medium supplemented with 50 units/ml penicillin, […] streptomycin, B-27 and N-2). One milliliter of sphere formation medium was added every 3-4 days. After 7 days of incubation with different concentrations of EGCG analogs 23, 30 or metformin, the formed spheres were collected by centrifugation at 300 g for 5 min and counted with an inverted phase-contrast Zeiss Axiovert 25 microscope.

[1] = test system: Human breast cancer MDA-MB-231 cells; assay: MTT cell proliferation assay in MDA-MB-231 cells; assay type: cell-based; settings: indicated concentrations, 24 h, MTT
Experimental: Human breast cancer MDA-MB-231 cells were treated with 25 or 50 μM EGCG analogs for 24 hours, followed by MTT assay. Pro-EGCG was used as a comparison.
Human breast cancer MDA-MB-231 cells with high COMT activity were treated with 50 μM EGCG analogs for 24 hours in the absence or presence of 10 μM DNC, followed by MTT assay. Pro-EGCG was used as a comparison.
as §1
Cells were grown in a 96-well plate. Triplicate wells of cells were treated with indicated concentrations of EGCG or EGCG analogs for 24 h. After aspiration of medium, MTT (1 mg/ml) was then added to the cell cultures, followed by incubation for 3 h at 37° C. After cells were crystallized, MTT was removed and DMSO was added to dissolve the metabolized MTT product. The absorbance was then measured on a Wallac Victor3 1420 Multi-label counter at 540 nm.

[2] = test system: mTOR pathway (phosphor-p70-S6K); assay: mTOR pathway, phosphor-p70-S6K Western blot, MDA-MB-231 cells; assay type: cell-based, human; settings: 3 h
Experimental: as §1
(§2) The Western blot analysis was performed as follows: A whole cell extract was prepared from the treated cells as described previously (Landis-Piwowar et al., Cancer research, 2007, 67: 4303-4310; Chen et al., Cancer research, 2007, 67: 1636-1644; Chen et al., Biochemical pharmacology, 2005, 69: 1421-1432). The cell extracts (30 μg) were then separated by an SDS-PAGE gel and transferred to nitrocellulose membranes. […]

p21 protein = p21 protein level, Western blot, MDA-MB-231 cells; assay type: cell-based, human; settings: 3 h
Experimental: as §1, §2

Question: `O=C(O[C@@H]1Cc2c(O)cc(O)cc2O[C@@H]1c1cc(O)c(O)c(O)c1)c1cc(O)c(O)c(O)c1` [Compound 1, (−)-Epigallocatechin gallate, reference compound] was tested. Which “AMPK activation (p-AMPK)” value (AMPK signaling) did it give?
Answer: The value was “can activate AMPK signaling”.

Question: What about the inhibition at 10 µM (MDA-MB-231 cells) of the same compound?
Answer: Its inhibition at 10 µM is 20.1%.

Question: And the inhibition at 20 µM (MDA-MB-231 cells)?
Answer: Its inhibition at 20 µM is 51.3%.

Question: How did the “inhibition of cell proliferation (in words)” value [1] turn out when `O=C(O[C@H]1Cc2ccccc2C[C@H]1OC(=O)c1cc(O)c(Br)c(O)c1)c1cc(O)c(Br)c(O)c1` [Compound 23] was run?
Answer: Its value is “inhibit cell proliferation in a dose-dependent manner”.

Question: And the “AMPK activation (p-AMPK)” value (AMPK signaling)?
Answer: Its value is “more potent AMPK activators even at lower concentration than metformin”.

Question: What about the “AMPK activation (phosphor-AMPKα, phosphor-Raptor), dose dependence” value (AMPK signaling) of the same compound?
Answer: Its value is “activated AMPK in a dose-dependent manner”.

Question: What about the inhibition at 10 µM (MDA-MB-231 cells) of the same compound?
Answer: Its inhibition at 10 µM is 45.1%.

Question: What about the inhibition at 20 µM (MDA-MB-231 cells) of the same compound?
Answer: Its inhibition at 20 µM is 66.7%.

Question: What about the phosphor-p70-S6K level [2] of the same compound?
Answer: Its phosphor-p70-S6K level is “decreased phosphor-p70-S6K”.

Question: What about the p21 protein level (p21 protein) of the same compound?
Answer: Its p21 protein level is “increased levels of p21 protein”.

Question: Which “inhibition of cell proliferation (in words)” value [1] does the source give for `Nc1ccc(C(=O)O[C@H]2Cc3ccccc3C[C@H]2OC(=O)c2ccc(N)cc2)cc1` [Compound 30] here?
Answer: The value was “inhibit cell proliferation in a dose-dependent manner”.

Question: What about the “AMPK activation (p-AMPK)” value (AMPK signaling) of the same compound?
Answer: The value was “more potent AMPK activators even at lower concentration than metformin”.

Question: What about the “AMPK activation (phosphor-AMPKα, phosphor-Raptor), dose dependence” value (AMPK signaling) of the same compound?
Answer: The value was “activated AMPK in a dose-dependent manner”.

Question: What about the inhibition at 10 µM (MDA-MB-231 cells) of the same compound?
Answer: The inhibition at 10 µM was 52.2%.

Question: What about the inhibition at 20 µM (MDA-MB-231 cells) of the same compound?
Answer: Its inhibition at 20 µM is 73.3%.

Question: What about the phosphor-p70-S6K level [2] of the same compound?
Answer: Its phosphor-p70-S6K level is “decreased phosphor-p70-S6K”.

Question: What about the p21 protein level (p21 protein) of the same compound?
Answer: The p21 protein level was “increased levels of p21 protein”.
